Data: patent US11612681B2, “Compositions and devices for removal of endotoxins and cytokines from fluids” (priority 2017, dated 2023)

Experiments:
[1] = Fluorescent polarization assay of FITC-LPS complexation; type: binding; conditions: FITC-LPS 10 μg/mL in PBS
Method: Fluorescent polarization assays. The fluorescence polarization (FP) was measured on the Multi-Mode Microplate Reader (Synergy™ 2, Biotek, VT) equipped with dichroic mirror (510 nm) and polarizing filter. The measurements were carried out on black flat bottom 96-well plates (Nunclon™ Surface, Roskilde, Denmark). The FP of LPS-FITC was record at excitation and emission filter of 485/20 nm and 528/20 nm, respectively. The experiments were performed in triplicate.

[2] = type: binding, E. coli; conditions: 40:1 mass ratio of PMB/LPS
Method: (§1) Electrophoresis Assays. The binding capacities of the telodendrimers with LPS and/or BSA were studied and compared with PMB binding using electrophoresis assay. The electrophoresis was carried out in 1.5% agarose gel (tris-borate-EDTA (TBE) buffer) at constant current of 20 mA for 2 h. The gel was imaged by a Bio-Rad Universal Hood II Imager (Bio-Rad Laboratories, Inc.) under SYBR Green modes or photographed under UV illumination.
as §1, with “assays.” for “Assays.”, “bovine serum albumin (BSA)” for “BSA”, “(Tris-borate-EDTA” for “(tris-borate-EDTA”

Polymyxin B [PMB]
fluorescent polarization of FITC-LPS [1]: only slightly increased | stability of LPS complex in electrophoresis [2]: unstable and dissociated
